In general, IC50 refers to the concentration that inhibits the measured activity by half. Read a high IC50 as a need for much substance.

The target in this experiment is T1, Progesterone receptor (PR) (Homo sapiens, UniProt P06401).
T1 construct: endogenous in cells; host or cells: T47D human breast mammary carcinoma cells
T1 sequence (P06401 1-933): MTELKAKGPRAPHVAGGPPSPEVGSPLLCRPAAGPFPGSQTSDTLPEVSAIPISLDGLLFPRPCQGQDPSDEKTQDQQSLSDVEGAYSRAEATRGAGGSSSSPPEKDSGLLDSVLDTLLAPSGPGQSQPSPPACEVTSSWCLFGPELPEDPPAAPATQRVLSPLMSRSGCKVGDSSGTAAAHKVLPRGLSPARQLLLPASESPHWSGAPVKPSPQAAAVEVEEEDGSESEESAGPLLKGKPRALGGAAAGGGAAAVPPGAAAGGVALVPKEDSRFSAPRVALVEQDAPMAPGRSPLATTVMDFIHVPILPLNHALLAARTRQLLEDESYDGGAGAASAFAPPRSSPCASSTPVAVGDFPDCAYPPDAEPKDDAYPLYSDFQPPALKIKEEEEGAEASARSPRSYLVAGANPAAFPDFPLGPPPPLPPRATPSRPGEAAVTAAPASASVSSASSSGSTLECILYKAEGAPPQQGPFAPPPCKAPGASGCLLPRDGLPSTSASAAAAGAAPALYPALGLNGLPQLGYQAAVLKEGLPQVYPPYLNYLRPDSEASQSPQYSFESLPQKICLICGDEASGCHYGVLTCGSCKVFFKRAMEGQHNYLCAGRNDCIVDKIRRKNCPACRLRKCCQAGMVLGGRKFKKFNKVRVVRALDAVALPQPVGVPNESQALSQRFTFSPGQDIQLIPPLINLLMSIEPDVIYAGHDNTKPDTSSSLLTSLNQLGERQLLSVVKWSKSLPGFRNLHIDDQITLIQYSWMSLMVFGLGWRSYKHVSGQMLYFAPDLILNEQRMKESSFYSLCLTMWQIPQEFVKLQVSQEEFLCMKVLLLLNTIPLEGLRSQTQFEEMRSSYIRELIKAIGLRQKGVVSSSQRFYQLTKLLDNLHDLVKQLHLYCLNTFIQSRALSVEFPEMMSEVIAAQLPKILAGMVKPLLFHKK
Kind of experiment: In vitro functional assay for progesterone receptor (PR) antagonists: inhibition of progesterone-induced alkaline phosphatase expression in T47D cells. The settings on record: antagonist format; T47D human mammary carcinoma cells; alkaline phosphatase inhibition vs 5 nM progesterone. Type of experiment: cell-based. An excerpt:
1.0 In Vitro Functional Assay for Progesterone Receptor (PR) Antagonists, Agonists and Modulators
The assay for PR antagonism takes advantage of the extensively reported modulation of alkaline phosphatase (AP) expression in human breast T47D mammary carcinoma cells {Beck, et al., D. P. (1993). The progesterone antagonist RU486 acquires agonist activity upon stimulation of cAMP signalling pathways. Proc Natl Acad Sci U S A 90, 4441-4445; Fensome, et al. (2002). New progesterone receptor antagonists: 3,3-disubstituted-5-aryloxindoles. Bioorg. Med. Chem. Lett., 12, 3487-3490; Zhang et al., (2002a). 6-Aryl-1,4-dihydro-benzo d 1,3 oxazin-2-ones: a novel class of potent, selective, and orally active nonsteroidal progesterone receptor antagonists. J. Med. Chem., 45, 4379-4382; Zhang et al., (2003). Novel 6-aryl-1,4-dihydrobenzo d oxazine-2-thiones as potent, selective, and orally active nonsteroidal progesterone receptor agonists. Bioorg. Med. Chem. Lett., 13, 1313-1316; Zhang et al., (2002b). Potent nonsteroidal progesterone receptor agonists: synthesis and SAR study of 6-aryl benzoxazines. Bioorg. Med. Chem. Lett., 12, 787-790; Zhang, Z. et al., (2000). In vitro characterization of trimegestone: a new potent and selective progestin. Steroids 65, 637-643.}. […] In the absence of progesterone any agonist activity is also observed as an induction of AP activity. By running the assay in two formats (± progesterone (P4)), compounds behaving as PR antagonists, agonists, partial agonists or modulators with mixed agonist/antagonist activity can be identified.
Briefly, T47D cells are grown by propagating in DMEM with phenol red+10% FCS+2 mM Glutamine at 37° C./5% CO2. At 70-80% confluence, the media is exchanged for phenol red free DMEM+5% CS-FCS (Assay media). Cells are incubated overnight in assay media then harvested and frozen in assay media containing 10% DMSO at 1.5e7 cells/mL in 2 mL aliquots using a Planer and immediately stored in liquid nitrogen. V1als are removed from liquid nitrogen storage and immediately thawed in a water bath at 37° C. The cell suspension is added dropwise to 20 mL of assay media, then the tube centrifuged at 1000 rpm for 4 minutes, the supernatant is discarded and the pellet re-suspended in 20 mL assay media. T47D cells are then plated at 8750 cells/well in 35 μL assay media in sufficient white solid 384 well TC plates for the assay. For the agonist format assay a further 10 μL of assay media is added to each well. These plates are then cultured for 3-6 hours at 37° C./5% CO2 before compound addition.
Compounds are prepared by in 100% DMSO, half log concentrations from 4 mM in 384 well plates 5 μL/well (referred to here as ‘grandmother plates’). Progesterone is 100 μM made up in ethanol and PBS (i.e. add 1 mL ethanol to progesterone initially to help dissolving) and stored in 0.5-1 mL aliquots at −20° C.
Using a multidrop (Thermolabsystems), 60 μL/well of buffer is added to a 384 well plate—this will be the ‘mother plate’. Add 45 μLwell buffer to grandmother plate using the multidrop (=400 μM 10% DMSO dilution). Mixed and spun to remove air bubbles.
20 μL is taken from the grandmother plate (400 μM 10% DMSO) and added to the mother plate (=100 μM 2.5% DMSO). Mixed and spun to remove air bubbles
The PlateMate Plus was used to add 5 μL MAX/MIN to cell plates
Then 5 μL compounds are added from the mother plate(after removing max/min Platemate tips: columns 1 and 24)
25 nM progesterone in assay media is prepared from 100 μM stock (12.5 μL progesterone/50 mL media), from which 10 μL per well is transferred to the assay plate using the Platemate Plus (already containing cells & compound).
The cell plates are incubated @ 37° C., 5% CO2 overnight (at least 16 hours). […]

Molecules are shown by their SMILES.

`Cc1cc(Oc2c(C)nn(C3CS(=O)(=O)C3)c2C2CC2)cc(C)c1C#N` [Example 11, 4-(3-Methyl-5-cyclopropyl-1-(1,1-dioxo-thietan-3-yl)-1H-pyrazol-4-yloxy)-2,6-dimethyl-benzonitrile] yielded a half-maximal inhibitory concentration (IC50) of 50.4 nM.

`Cc1cc(Oc2c(C)nn(C3CCS(=O)(=O)C3)c2C2CC2)cc(C)c1C#N` (racemic) [Example 14, rac-4-[5-Cyclopropyl-1-(1,1-dioxo-tetrahydro-1λ^6-thiophen-3-yl)-3-methyl-1H-pyrazol-4-yloxy]-2,6-dimethyl-benzonitrile] showed an IC50 of 133 nM.

Consider `Cc1cc(Oc2c(C3CC3)nn(C3COC3)c2C2CC2)cc(C)c1C#N` [Example 1, 4-(3,5-Dicyclopropyl-1-oxetan-3-yl-1H-pyrazol-4-yloxy)-2,6-dimethyl-benzonitrile], for which the midpoint of inhibition, the IC50, lay at 82.6 nM.

For the molecule `Cc1cc(Oc2c(C3CC3)nn(C3CCOC3)c2C2CC2)cc(C)c1C#N` (stereo not drawn) [Example 3, 4-[3,5-Dicyclopropyl-1-(tetrahydro-furan-3-yl)-1 H-pyrazol-4-yloxy]-2,6-dimethyl-benzonitrile], inhibition was half-maximal at 67.4 nM (IC50).

In turn, `Cc1cc(Oc2c(C3CC3)nn(C3CS(=O)(=O)C3)c2Cl)cc(C)c1C#N` [Example 20, 4-[5-Chloro-3-cyclopropyl-1-(1,1-dioxo-1λ^6-thietan-3-yl)-1H-pyrazol-4-yloxy]-2,6-dimethyl-benzonitrile] showed an IC50 of 22 nM. This IC50 is about 3.1-fold lower than that of the molecule before.

In turn, `Cc1cc(Oc2c(C3CC3)nn(C3CCS(=O)(=O)C3)c2C2CC2)cc(C)c1C#N` (single isomer, unassigned) [Example 8, 4-[3,5-Dicyclopropyl-1-(1,1-dioxo-tetrahydro-1λ^6-thiophen-3-yl)-1H-pyrazol-4-yloxy]-2,6-dimethyl-benzonitrile] yielded an IC50 of 33.8 nM.

`Cc1cc(Oc2c(C3CC3)nn(C3CCOCC3)c2C2CC2)cc(C)c1C#N` [Example 6, 4-[3,5-Dicyclopropyl-1-(tetrahydro-pyran-4-yl)-1H-pyrazol-4-yloxy]-2,6-dimethyl-benzonitrile] registered a 50% inhibitory concentration (IC50) of 56.3 nM.

The molecule `Cc1cc(Oc2c(C3CC3)nn(C3CCS(=O)(=O)C3)c2C2CC2)cc(C)c1C#N` (single isomer, unassigned) [Example 9, 4-[3,5-Dicyclopropyl-1-(1,1-dioxo-tetrahydro-1λ^6*-thiophen-3-yl)-1H-pyrazol-4-yloxy]-2,6-dimethyl-benzonitrile] yielded an IC50 of 25.9 nM.

In turn, `Cc1cc(Oc2c(C3CC3)nn(C3CS(=O)(=O)C3)c2C2CC2)cc(C)c1C#N` [Example 2, 4-[3,5-Dicyclopropyl-1-(1,1-dioxo-thietan-3-yl)-1H-pyrazol-4-yloxy]-2,6-dimethyl-benzonitrile] displayed an IC50 of 14.7 nM.

The molecule `Cc1cc(Oc2c(C)nn(C3CCS(=O)(=O)C3)c2C2CCC2)cc(C)c1C#N` (racemic) [Example 12, rac-4-[5-Cyclobutyl-1-(1,1-dioxo-tetrahydro-1λ^6-thiophen-3-yl)-3-methyl-1H-pyrazol-4-yloxy]-2,6-dimethyl-benzonitrile] came in with a half-inhibitory concentration (IC50) of 1490 nM.

In the case of `Cc1cc(Oc2c(C3CCC3)nn(C3CCS(=O)(=O)C3)c2C)cc(C)c1C#N` (racemic) [Example 13, rac-4-[3-Cyclobutyl-1-(1,1-dioxo-tetrahydro-1λ^6-thiophen-3-yl)-5-methyl-1H-pyrazol-4-yloxy]-2,6-dimethyl-benzonitrile], half-maximal inhibition (IC50) required 202 nM.

`Cc1cc(Oc2c(C3CC3)nn(C3CCS(=O)(=O)C3)c2C2CC2)cc(C)c1C#N` (racemic) [Example 7, rac-4-[3,5-Dicyclopropyl-1-(1,1-dioxo-tetrahydro-1λ^6-thiophen-3-yl)-1H-pyrazol-4-yloxy]-2,6-dimethyl-benzonitrile] yielded an IC50 of 13.8 nM.

In turn, `Cc1cc(Oc2c(Cl)nn(C3CS(=O)(=O)C3)c2C2CC2)cc(C)c1C#N` [Example 21, 4-[3-Chloro-5-cyclopropyl-1-(1,1-dioxo-1λ^6-thietan-3-yl)-1H-pyrazol-4-yloxy]-2,6-dimethyl-benzonitrile] returned an IC50 of 108 nM. Compared with the last molecule, the IC50 is about 7.8-fold higher.

`Cc1cc(Oc2c(C3CC3)nn(C3CCS(=O)(=O)CC3)c2C2CC2)cc(C)c1C#N` [Example 5, 4-[3,5-Dicyclopropyl-1-(1,1-dioxo-hexahydro-1 λ^6-thiopyran-4-yl)-1H-pyrazol-4-yloxy]-2,6-dimethyl-benzonitrile] had a 50% inhibitory concentration (IC50) of 91.3 nM.

As for `Cc1cc(Oc2c(C3CC3)nn(C3CS(=O)(=O)C3)c2C)cc(C)c1C#N` [Example 10, 4-(3-Cyclopropyl-5-methyl-1-(1,1-dioxo-thietan-3-yl)-1H-pyrazol-4-yloxy)-2,6-dimethyl-benzonitrile], the midpoint of inhibition, the IC50, lay at 27.6 nM.

For the origin of these results see patent US20080096950A1, “Compounds Useful In Therapy” (priority 2006, published 2008).
